Reference: US20040019429A1, “Methods and systems for analyzing complex biological systems” (priority 2001, published 2004)
“Also recorded” adds a separate entry of the source.

Key:
[1] = test system: Arabidopsis thaliana plants; test: SOA1 phenotypic analysis of herbicide-treated plants (MIC, Tmic, leaf traits, symptom class); type: in vivo; conditions: for leafCurling (Dev.) / leafTwisting (Dev.) / leafWidth (Dev.) / matureLeafAnthocyanins (Dev.) / matureLeafChlorosis (Dev.) / matureLeafNecrosis (Dev.) / newLeafAnthocyanins (Dev.) / newLeafChlorosis (Dev.) / newLeafNecrosis (Dev.) / pointedLeaves (Dev.): numeric value standardized to mock treated plants; for leafCurling (Dev.) / leafTwisting (Dev.) / leafWidth (Dev.) / matureLeafAnthocyanins (Dev.) / matureLeafChlorosis (Dev.) / matureLeafNecrosis (Dev.) / newLeafAnthocyanins (Dev.) / newLeafChlorosis (Dev.) / newLeafNecrosis (Dev.) / pointedLeaves (Dev.) / tMic (Dev.): SOA1; for tMic (Dev.): score for time to full range of symptoms at the MIC; for Characteristic symptoms of treated plants (in words): SOA1 phenotypic analysis
[2] = test system: Arabidopsis thaliana; test: MOA1 gene expression profiling (arrays of 22,000 Arabidopsis genes); conditions: for Gene expression perturbation (in words): MOA1, one-hour time point; for No. of Lethal Genes Altered: altered genes identified as essential for plant growth in internal database
[3] = test system: Saccharomyces cerevisiae wild type strain BY4743; test: AF1 yeast metabolite analysis by GC-MS and LC-MS after antifungal drug treatment; type: cell-based; conditions: for Fold Change, phosphoenolpyruvate: metabolite phosphoenolpyruvate; for Fold Change, thymine: metabolite thymine; for Fold Change, urocanic acid: metabolite urocanic acid; for Fold Change, zeatin: metabolite zeatin
[4] = test system: Arabidopsis thaliana; test: MOA1 biochemical (metabolite) profiling by LC-MS and GC-MS; conditions: 20 minutes and 1 hour after spraying
[5] = test system: Magnaporthe grisea; type: cell-based
[6] = 1 hr, p < 0.5, number of genes of 22,000

O=C(O)COc1ccc(Cl)cc1Cl [2,4-D]
leafCurling (Dev.) [1]: 1
leafTwisting (Dev.) [1]: 2
leafWidth (Dev.) [1]: −1
matureLeafAnthocyanins (Dev.) [1]: 1
matureLeafChlorosis (Dev.) [1]: 2
matureLeafNecrosis (Dev.) [1]: 0
newLeafAnthocyanins (Dev.) [1]: 0
newLeafChlorosis (Dev.) [1]: 1
newLeafNecrosis (Dev.) [1]: 0
pointedLeaves (Dev.) [1]: 0
tMic (Dev.) [1]: 2
Symptom Class ([1]; three-week-old Arabidopsis plants treated with herbicide): 5

O=C(O)c1ccccc1C(=O)Nc1cccc2ccccc12 [Naptalam]
Regulated Genes Following Herbicide Treatment: Down [2, 6]: 47
Regulated Genes Following Herbicide Treatment: Up [2, 6]: 50
Gene expression perturbation (in words) [2]: fewest gene expression perturbations
No. of Lethal Genes Altered ([2]; 1 hr): 3

COC(=O)NS(=O)(=O)c1ccc(N)cc1 [Asulam]
Gene expression perturbation (in words) [2]: fewest gene expression perturbations
No. of Lethal Genes Altered ([2]; 1 hr): 5

CC(=O)N1CCN(c2ccc(OCC3COC(Cn4ccnc4)(c4ccc(Cl)cc4Cl)O3)cc2)CC1 (stereo not shown) [Ketoconazole]
# Compounds perturbed by treatment ([3]; P < 0.1, 2X MIC, two hours): 15

COC(=O)c1cc(Oc2ccc(Cl)cc2Cl)ccc1[N+](=O)[O-] [Bifenox]
Characteristic symptoms of treated plants (in words) [1]: Necrotic leaf flecks

CNc1cnn(-c2cccc(C(F)(F)F)c2)c(=O)c1Cl [Norfluazon, Norflurazon]
Regulated metabolites relative to control (in words) [4]: Only a few, if any, stress-related metabolites were observed

CCc1cnc(C2=NC(C)(C(C)C)C(=O)N2)c(C(=O)O)c1 (stereo not shown) [Imazethapyr]
Characteristic symptoms of treated plants (in words) [1]: anthocyanin accumulation in the older leaves accompanied by chlorosis of the newly emerging leaves

CC[C@@H]([C@H](C)O)n1ncn(-c2ccc(N3CCN(c4ccc(OC[C@@H]5CO[C@@](Cn6cncn6)(c6ccc(F)cc6F)C5)cc4)CC3)cc2)c1=O [Posaconazote]
Fold Change, porphobilinogen ([3]; metabolite porphobilinogen, platform nLC, p-Value 1): 0

c1cc[n+]2c(c1)-c1cccc[n+]1CC2 [Diquat]
Characteristic symptoms of treated plants (in words) [1]: rapid and widespread leaf necrosis
leafCurling (Dev.) [1]: 2
leafTwisting (Dev.) [1]: 0
leafWidth (Dev.) [1]: −2
matureLeafAnthocyanins (Dev.) [1]: 0
matureLeafChlorosis (Dev.) [1]: 1
matureLeafNecrosis (Dev.) [1]: 4
newLeafAnthocyanins (Dev.) [1]: 0
newLeafChlorosis (Dev.) [1]: 1
newLeafNecrosis (Dev.) [1]: 4
pointedLeaves (Dev.) [1]: 1
tMic (Dev.) [1]: 2

CN(C)C(=O)Nc1ccc(Cl)c(Cl)c1 [Diuron]
Characteristic symptoms of treated plants (in words) [1]: rapid and widespread leaf necrosis
leafCurling (Dev.) [1]: 1
leafTwisting (Dev.) [1]: 0
leafWidth (Dev.) [1]: −2
matureLeafAnthocyanins (Dev.) [1]: 0
matureLeafChlorosis (Dev.) [1]: 2
matureLeafNecrosis (Dev.) [1]: 4
newLeafAnthocyanins (Dev.) [1]: newLeafAnthocyanins 0
newLeafChlorosis (Dev.) [1]: 2
newLeafNecrosis (Dev.) [1]: 4
pointedLeaves (Dev.) [1]: 1
tMic (Dev.) [1]: 1

CC(C)N1C(=O)c2ccccc2NS1(=O)=O [Bentazon]
Characteristic symptoms of treated plants (in words) [1]: rapid and widespread leaf necrosis

OC(Cn1cncn1)(Cn1cncn1)c1ccc(F)cc1F [Fluconazole]
Fold Change, abscisic acid ([3]; platform LC): 0
Fold Change, adenosine ([3]; platform LC): 0

C[n+]1ccc(-c2cc[n+](C)cc2)cc1 [Paraquat]
Characteristic symptoms of treated plants (in words) [1]: rapid and widespread leaf necrosis
leafCurling (Dev.) [1]: 2
leafTwisting (Dev.) [1]: 0
leafWidth (Dev.) [1]: −1
matureLeafAnthocyanins (Dev.) [1]: 0
matureLeafChlorosis (Dev.) [1]: 1
matureLeafNecrosis (Dev.) [1]: 4
newLeafAnthocyanins (Dev.) [1]: 0
newLeafChlorosis (Dev.) [1]: 1
newLeafNecrosis (Dev.) [1]: 4
pointedLeaves (Dev.) [1]: 1
tMic (Dev.) [1]: 2

O=C(O)c1cc(Oc2ccc(C(F)(F)F)cc2Cl)ccc1[N+](=O)[O-] [Acifluorfen]
Characteristic symptoms of treated plants (in words) [1]: Necrotic leaf flecks

COc1nc(C)nc(NC(=O)NS(=O)(=O)c2ccccc2Cl)n1 [Chlorsulfuron]
Characteristic symptoms of treated plants (in words) [1]: anthocyanin accumulation in the older leaves accompanied by chlorosis of the newly emerging leaves
No. of Lethal Genes Altered ([2]; 1 hr): 8

CC[C@@H]([C@H](C)O)n1ncn(-c2ccc(N3CCN(c4ccc(OC[C@@H]5CO[C@@](Cn6cncn6)(c6ccc(F)cc6F)C5)cc4)CC3)cc2)c1=O [Posaconazole]
Fold Change, NacetylDglucosamine ([3]; metabolite NacetylDglucosamine, platform nLC, p-Value 1): 0
Fold Change, NacetylLglucosamine ([3]; metabolite NacetylLglucosamine, platform pLC, p-Value 1): 0
Fold Change, NacetylLglutamate ([3]; metabolite NacetylLglutamate, platform pLC, p-Value 1): 0
Fold Change, NacetylLornithine ([3]; metabolite NacetylLornithine, platform nLC, p-Value 1): 0
Fold Change, niacinamide ([3]; metabolite niacinamide, platform pLC, p-Value 1): 0
Fold Change, nopaline ([3]; metabolite nopaline, platform pLC, p-Value 1): 0
Fold Change, ornithine3 ([3]; metabolite ornithine3, platform GC, p-Value 0.965157424): 0.041
Fold Change, orotic acid ([3]; metabolite orotic acid, platform nLC, p-Value 1): 0
Fold Change, phenylpyruvic acid ([3]; metabolite phenylpyruvic acid, platform nLC, p-Value 1): 0
Fold Change, phosphoenolpyruvate ([3]; platform LC, p-Value 1): 0
Fold Change, phosphoenolpyruvate ([3]; platform nLC, p-Value 1): 0
Fold Change, pinitol ([3]; metabolite pinitol, platform nLC, p-Value 1): 0
Fold Change, progesterone ([3]; metabolite progesterone, platform pLC, p-Value 1): 0
Fold Change, retinoic acid ([3]; metabolite retinoic acid, platform nLC, p-Value 1): 0
Fold Change, riboflavin ([3]; metabolite riboflavin, platform pLC, p-Value 1): 0
Fold Change, salicylic/HObenzoic ([3]; metabolite salicylic/HObenzoic, platform nLC, p-Value 1): 0
Fold Change, shikimic acid ([3]; metabolite shikimic acid, platform nLC, p-Value 1): 0
Fold Change, sinapinic acid ([3]; metabolite sinapinic acid, platform nLC, p-Value 1): 0
Fold Change, sugar-phosphate ([3]; metabolite sugar-phosphate, platform pLC, p-Value 1): 0
Fold Change, thiamine ([3]; metabolite thiamine, platform pLC, p-Value 1): 0
Fold Change, thymine ([3]; platform nLC, p-Value 1): 0
Fold Change, thymine ([3]; platform pLC, p-Value 1): 0
Fold Change, tryptophan ([3]; metabolite tryptophan, platform pLC, p-Value 1): 0
Fold Change, uric acid ([3]; metabolite uric acid, platform pLC, p-Value 1): 0
Fold Change, urocanic acid ([3]; platform nLC, p-Value 1): 0
Fold Change, urocanic acid ([3]; platform pLC, p-Value 1): 0
Fold Change, xanthosine(diH2O) ([3]; metabolite xanthosine(diH2O), platform pLC, p-Value 1): 0
Fold Change, xanthosineDiH2O ([3]; metabolite xanthosineDiH2O, platform nLC, p-Value 1): 0
Fold Change, zeatin ([3]; platform nLC, p-Value 1): 0
Fold Change, zeatin ([3]; platform pLC, p-Value 1): 0

CSc1nnc(C(C)(C)C)c(=O)n1N [Metribuzin]
Characteristic symptoms of treated plants (in words) [1]: rapid and widespread leaf necrosis

O=C(O)CNCP(=O)(O)O [Glyphosate]
Characteristic symptoms of treated plants (in words) [1]: anthocyanin accumulation in the older leaves accompanied by chlorosis of the newly emerging leaves
leafCurling (Dev.) [1]: 0
leafTwisting (Dev.) [1]: 0
leafWidth (Dev.) [1]: 0
matureLeafAnthocyanins (Dev.) [1]: 3
matureLeafChlorosis (Dev.) [1]: 1
matureLeafNecrosis (Dev.) [1]: 3
newLeafAnthocyanins (Dev.) [1]: 1
newLeafChlorosis (Dev.) [1]: 2
newLeafNecrosis (Dev.) [1]: 0
pointedLeaves (Dev.) [1]: 1
tMic (Dev.) [1]: 2
Growth of M. grisea on various nitrogen sources, Tier 4 [5]: inhibited growth of M. grisea when nitrate, nitrite, or glutamate was provided as the sole nitrogen source; also recorded: Little growth defect was observed when ammonium or glutamine was provided
Growth results for Tiers 3 and 4 ([5]; 250 μg/ml): nearly identical as compared to Unknown 4
Growth inhibition of M. grisea and its remediation ([5]; 1.0 mg/ml): remediated by inclusion of aromatic amino acids to the media
Regulated metabolites relative to control (in words) [4]: (tyrosine), decreased relative to the control after one hour

CC(C)C1(C)N=C(c2ncccc2C(=O)O)NC1=O (stereo not shown) [Imazapyr]
Characteristic symptoms of treated plants (in words) [1]: anthocyanin accumulation in the older leaves accompanied by chlorosis of the newly emerging leaves
Regulated metabolites relative to control (in words) [4]: Only a few, if any, stress-related metabolites were observed

CCNc1nc(Cl)nc(NC(C)C)n1 [Atrazine]
Characteristic symptoms of treated plants (in words) [1]: rapid and widespread leaf necrosis
